Test results taken from US7378443B2, “Fatty acid analogues for the treatment of cancer” (Thia Medica, AS, priority 2000, dated 2008).
Entries after “also recorded” stand apart in the source; their conditions may differ.

Legend:
GaMg cells = test: cell migration out from attached spheroids; format: cell-based, human; conditions: 100 μM, 3 days of culture, DMEM, data not shown
Procedure: (§1) To compare the effect of the different fatty acid analogues on tumour spheroid growth, both D-54Mg and GaMg spheroids were transferred individually into 16 mm 24-well dishes base coated with 0.5 ml 0.75% DMEM-agar. D-54Mg and GaMg are human cell lines. The D-54Mg cell line was derived from a mixed anaplastic glioma and was kindly supplied by Dr. Darell D. Bigner, Duke University, Durham, N.C. The GaMg cell line was established in our laboratory and has been described in detail elsewhere (Bjerkvik et al.: Anticancer research 1998: vol 8, p 797-803). The spheroids were divided into 5 groups with 4 spheroids in each group. Four groups were treated with the different fatty acid analogues at a final fatty acid concentration of either 100 or 250 μM. […] The volume of the overlay suspension was 1.0 ml. The size of the spheroids were determined every second day be measuring two orthogonal diameters using an inverted phase contrast microscope with a calibrated reticle in the eye-piece. This was done during a 14-day period.
(§2) The effect of the fatty acid analogues on cell migration was studied by measuring the ability of cells to migrate out from spheroids that had attached to a plastic surface. […] The size of the outgrowth area was then determined by using a Kontron morphometry system (Kontron, Eching, Germany). […]

D-54MG cells = test: cell migration out from attached spheroids; format: cell-based, human; conditions: D-54MG spheroids, 100 μM, 3 days of culture, DMEM; data not shown
Procedure: as §1, §2

[1] = 28 days toxicity study in dogs (GLP); format: in vivo
Excerpt: A 28 days toxicity study in dogs according to GLP guidelines has been performed by Corning Hazleton (Europe), England. […] Some lipid related parameters were lowered in the animals given high dosages. This is consistent with the pharmacological activity of TTA.

Salmonella typhimurium = test: tests for mutagenic activity in bacterial strains; format: cell-based; conditions: 3-1000 mg/plate (TTA), 2-5000 mg/plate (TSA)
Procedure: (§3) Covance Laboratories Limited, England, has performed tests for mutagenic activity. […] Furthermore, TTA was not mutagenic when tested in mouse lymphoma cells […] L5178Y.
(§4) The concentration of the compounds tested in S. typhimurium and E. coli were 3-1000 mg/plate (TTA) 2-5000 mg/plate (TSA). In mouse lymphoma cells, L5178Y, the concentration was 2,5-50 mg/ml.

Escherichia coli = test: tests for mutagenic activity in bacterial strains; format: cell-based; conditions: 3-1000 mg/plate (TTA), 2-5000 mg/plate (TSA)
Procedure: as §3, §4

BT4Cn tumours = test: survival of rats with intracranially implanted BT4Cn tumours; format: in vivo
Procedure: Mail Norwegian brown rats, BD IX, were used as described in example 5. The TTA was administered by oro-gastric intubation.
The tumour was implanted by stereotactical transplantation. The rats were anaesthetised with 0.4 ml Equithesin/100 g body weight. A skin incision was made, blood was removed by H2O2 and the scull was trephined using a dental drill.
The burr hole was localized 3.3 mm posterior to the coronal suture and 2.5 mm lateral to the sagittal suture.
Cells were harvested and counted as described above (Section 5.3), and then diluted in DPBS to a final concentration on 20.000 cells/μl. 2 μl cell suspension was injected with a Hamilton syringe with a cone-tipped 0.7 mm needle at a depth of 2.8 mm. The skin was closed with steel staples, and the animals were returned to their cages.

[2] = test system: mouse lymphoma cells, L5178Y; test: mutagenicity test in mouse lymphoma cells; format: cell-based; conditions: 2,5-50 mg/ml
Procedure: as §3, §4

[3] = test system: Chinese hamster ovary cells; test: chromosomal aberrations in cultured Chinese hamster ovary cells; format: cell-based; conditions: doses tested 12-140 mg/ml

In the case of Tetradecylthioacetic acid [TTA], the migratory capacity (GaMg cells) is reported as “severely inhibited”, the migratory capacity (D-54MG cells) is reported as “severely inhibited” and the lipid related parameters ([1]; animals given high dosages) is reported as “lowered”. The tolerability ([1]; oral administration, dose levels up to 500 mg/kg/day) was “generally well tolerated”, the evidence of toxicity ([1]; oral, dose levels of 50 or 500 mg/day/kg) was “no evidence of toxicity” and the induction of mutations (Salmonella typhimurium) was “did not induce mutations”. For the same compound, the induction of mutations (Escherichia coli) was “did not induce mutations”, the overall survival (BT4Cn tumours) was “substantially increased” and the mutagenicity [2] was “not mutagenic”.
In the case of `CCCCCCCCCCCCCC[Se]CC(=O)O` [TSA, tetradecylselenioacetic acid], the chromosomal aberrations [3] is reported as “no aberrations were induced”, the induction of mutations (Salmonella typhimurium) is reported as “did not induce mutations; also recorded: not to be mutagenic” and the induction of mutations (Escherichia coli) is reported as “did not induce mutations; also recorded: not to be mutagenic”.
